Like-named read-outs stand apart in the source and are kept apart here.
Key:
Assay type in all cases: in vivo
[1] = system: Italian ryegrass (Lolium multiflorum); assay: Test B pre-/postemergence plant response; conditions: for Ryegrass, Italian plant response rating: 8 g ai/ha; for pest or weed control at 16 g/ha / pest or weed control at 31 g/ha / pest or weed control at 62 g/ha: Lolium multiflorum, read-out: Plant response rating, Ryegrass, Italian; for pest or weed control at 16 g/ha: 16 g ai/ha; for pest or weed control at 31 g/ha: 31 g ai/ha; for pest or weed control at 62 g/ha: 62 g ai/ha
Method in brief: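 Preemergence and postemergence (plants 2-18 cm, 1- to 4-leaf stage) applications used test chemicals in a non-phytotoxic solvent with surfactant. Plants were held in a greenhouse 13 to 15 days, then rated visually against controls on a 0-100 scale (0 no effect, 100 complete control).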

[2] = system: pigweed (Amaranthus retroflexus); assay: Test C pre-/postemergence plant response
Method in brief: (§1)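 Both preemergence (to planted seed) and postemergence (to plants 2–18 cm high, 1- to 4-leaf) applications used test chemicals in a non-phytotoxic solvent mixture containing surfactant. Evaluation: visual comparison with controls after 15 to 25 days; 0 means no effect, 100 complete control.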

[3] = system: winter wheat (Triticum aestivum); assay: Test C pre-/postemergence plant response
Method in brief: as §1

[4] = system: annual bluegrass (Poa annua); assay: Test C pre-/postemergence plant response
Method in brief: as §1

[5] = system: canarygrass (Phalaris minor); assay: Test C pre-/postemergence plant response
Method in brief: as §1

[6] = system: windgrass (Apera spica-venti); assay: Test C pre-/postemergence plant response
Method in brief: as §1

[7] = system: blackgrass (Alopecurus myosuroides); assay: Test C pre-/postemergence plant response
Method in brief: as §1

wild oat (Avena fatua) = assay: Test C pre-/postemergence plant response
Method in brief: as §1

[8] = system: Italian ryegrass (Lolium multiflorum); assay: Test C pre-/postemergence plant response
Method in brief: as §1

[9] = system: spring wheat (Triticum aestivum); assay: Test C pre-/postemergence plant response
Method in brief: as §1

[10] = system: downy bromegrass (Bromus tectorum); assay: Test C pre-/postemergence plant response
Method in brief: as §1

[11] = system: wild mustard (Sinapis arvensis); assay: Test C pre-/postemergence plant response
Method in brief: as §1

[12] = system: green foxtail (Setaria viridis); assay: Test C pre-/postemergence plant response
Method in brief: as §1

[13] = system: winter barley (Hordeum vulgare); assay: Test C pre-/postemergence plant response
Method in brief: as §1

[14] = post-emergence, Postemergence, scale 0 to 100, 0 no effect, 100 complete control
[15] = Postemergence, 8 g ai/ha, scale 0 to 100, 0 no effect, 100 complete control
[16] = Postemergence, 16 g ai/ha, scale 0 to 100, 0 no effect, 100 complete control
[17] = Postemergence, 31 g ai/ha, scale 0 to 100, 0 no effect, 100 complete control
[18] = Postemergence, 62 g ai/ha, scale 0 to 100, 0 no effect, 100 complete control
[19] = Preemergence, 8 g ai/ha, scale 0 to 100 (0 no effect, 100 complete control)
[20] = Preemergence, 16 g ai/ha, scale 0 to 100 (0 no effect, 100 complete control)
[21] = Preemergence, 31 g ai/ha, scale 0 to 100 (0 no effect, 100 complete control)
[22] = Preemergence, 62 g ai/ha, scale 0 to 100, 0 no effect, 100 complete control

`CCc1c(C)c(-c2ccc(Cl)cc2)nn1-c1c(O)cnn(C)c1=O` [Compound 26, 4-[3-(4-chlorophenyl)-5-ethyl-4-methyl-1H-pyrazol-1-yl]-5-hydroxy-2-methyl-3(2H)-pyridazinone] was tested. Which “Ryegrass, Italian plant response rating” value ([1]; postemergence, 0-100 scale) did it give?
The value was 70.

And the pest or weed control at 16 g/ha ([1]; post-emergence, Postemergence, scale 0 to 100)?
Its pest or weed control at 16 g/ha is 85%.

And the pest or weed control at 31 g/ha [1, 14]?
The pest or weed control at 31 g/ha was 85%.

What about the pest or weed control at 62 g/ha [1, 14] of the same molecule?
Its pest or weed control at 62 g/ha is 100%.

And the pest or weed control at 16 g/ha ([1]; pre-emergence, Preemergence, scale 0 to 100 (0 no effect, 100 complete control))?
Its pest or weed control at 16 g/ha is 90%.

And the pest or weed control at 31 g/ha ([1]; pre-emergence, Preemergence, 0 to 100 scale, 0 no effect, 100 complete control)?
Its pest or weed control at 31 g/ha is 100%.

What about the pest or weed control at 62 g/ha ([1]; pre-emergence, Preemergence, scale 0 to 100) of the same molecule?
Its pest or weed control at 62 g/ha is 100%.

What about the “Ryegrass, Italian plant response rating” value ([1]; Preemergence, scale 0 to 100) of the same molecule?
The value was 50.

What about the “Plant response rating, Pigweed” value [2, 15] of the same molecule?
The value was 0.

And the “Plant response rating, Pigweed” value [2, 16]?
Its value is 0.

What about the “Plant response rating, Pigweed” value [2, 17] of the same molecule?
The value was 0.

And the “Plant response rating, Pigweed” value [2, 18]?
Its value is 20.

What about the “Plant response rating, Pigweed” value [2, 19] of the same molecule?
Its value is 0.

And the “Plant response rating, Pigweed” value [2, 20]?
Its value is 0.

What about the “Plant response rating, Pigweed” value [2, 21] of the same molecule?
The value was 0.

What about the “Plant response rating, Pigweed” value [2, 22] of the same molecule?
Its value is 20.

What about the “Plant response rating, Wheat, Winter” value [3, 15] of the same molecule?
Its value is 0.

What about the “Plant response rating, Wheat, Winter” value [3, 16] of the same molecule?
The value was 0.

And the “Plant response rating, Wheat, Winter” value [3, 17]?
Its value is 30.

And the “Plant response rating, Wheat, Winter” value [3, 18]?
Its value is 35.

And the “Plant response rating, Wheat, Winter” value [3, 19]?
The value was 0.

And the “Plant response rating, Wheat, Winter” value [3, 20]?
Its value is 0.

And the “Plant response rating, Wheat, Winter” value [3, 21]?
The value was 0.

What about the “Plant response rating, Wheat, Winter” value [3, 22] of the same molecule?
Its value is 25.

What about the “Plant response rating, Bluegrass” value [4, 15] of the same molecule?
The value was 0.

What about the “Plant response rating, Bluegrass” value [4, 16] of the same molecule?
Its value is 0.

What about the “Plant response rating, Bluegrass” value [4, 17] of the same molecule?
Its value is 0.

And the “Plant response rating, Bluegrass” value [4, 18]?
The value was 15.

What about the “Plant response rating, Bluegrass” value [4, 19] of the same molecule?
Its value is 0.

What about the “Plant response rating, Bluegrass” value [4, 20] of the same molecule?
The value was 0.

What about the “Plant response rating, Bluegrass” value [4, 21] of the same molecule?
Its value is 0.

And the “Plant response rating, Bluegrass” value [4, 22]?
Its value is 0.

What about the “Plant response rating, Canarygrass” value [5, 15] of the same molecule?
Its value is 25.

What about the “Plant response rating, Canarygrass” value [5, 16] of the same molecule?
The value was 75.

And the “Plant response rating, Canarygrass” value [5, 17]?
Its value is 75.

And the “Plant response rating, Canarygrass” value [5, 18]?
Its value is 100.

What about the “Plant response rating, Canarygrass” value [5, 19] of the same molecule?
Its value is 0.

And the “Plant response rating, Canarygrass” value [5, 20]?
The value was 0.

What about the “Plant response rating, Canarygrass” value [5, 21] of the same molecule?
Its value is 65.

What about the “Plant response rating, Canarygrass” value [5, 22] of the same molecule?
Its value is 70.

And the “Plant response rating, Windgrass” value [6, 15]?
The value was 0.

What about the “Plant response rating, Windgrass” value [6, 16] of the same molecule?
Its value is 0.

What about the “Plant response rating, Windgrass” value [6, 17] of the same molecule?
The value was 20.

What about the “Plant response rating, Windgrass” value [6, 18] of the same molecule?
The value was 65.

What about the “Plant response rating, Windgrass” value [6, 19] of the same molecule?
The value was 30.

And the “Plant response rating, Windgrass” value [6, 20]?
Its value is 30.

And the “Plant response rating, Windgrass” value [6, 21]?
The value was 98.

And the “Plant response rating, Windgrass” value [6, 22]?
Its value is 100.

And the “Plant response rating, Blackgrass” value [7, 15]?
Its value is 50.

And the “Plant response rating, Blackgrass” value [7, 16]?
The value was 50.

What about the “Plant response rating, Blackgrass” value [7, 17] of the same molecule?
The value was 70.

And the “Plant response rating, Blackgrass” value [7, 18]?
Its value is 95.

What about the “Plant response rating, Blackgrass” value [7, 19] of the same molecule?
Its value is 20.

What about the “Plant response rating, Blackgrass” value [7, 20] of the same molecule?
The value was 50.

And the “Plant response rating, Blackgrass” value [7, 22]?
Its value is 75.

And the “Plant response rating, Oat, Wild” value (wild oat (Avena fatua); [15])?
The value was 70.

What about the “Plant response rating, Oat, Wild” value (wild oat (Avena fatua); [16]) of the same molecule?
The value was 98.

What about the “Plant response rating, Oat, Wild” value (wild oat (Avena fatua); [17]) of the same molecule?
Its value is 98.

What about the “Plant response rating, Oat, Wild” value (wild oat (Avena fatua); [18]) of the same molecule?
Its value is 100.

What about the “Plant response rating, Oat, Wild” value (wild oat (Avena fatua); [19]) of the same molecule?
Its value is 0.

What about the “Plant response rating, Oat, Wild” value (wild oat (Avena fatua); [20]) of the same molecule?
The value was 15.

And the “Plant response rating, Oat, Wild” value (wild oat (Avena fatua); [21])?
The value was 65.

What about the “Plant response rating, Oat, Wild” value (wild oat (Avena fatua); [22]) of the same molecule?
The value was 75.

And the “Plant response rating, Ryegrass, Italian” value [8, 15]?
Its value is 70.

What about the “Plant response rating, Ryegrass, Italian” value [8, 16] of the same molecule?
Its value is 85.

And the “Plant response rating, Ryegrass, Italian” value [8, 17]?
The value was 95.

And the “Plant response rating, Ryegrass, Italian” value [8, 18]?
The value was 100.

What about the “Plant response rating, Ryegrass, Italian” value [8, 19] of the same molecule?
The value was 15.

And the “Plant response rating, Ryegrass, Italian” value [8, 20]?
The value was 75.

What about the “Plant response rating, Ryegrass, Italian” value [8, 21] of the same molecule?
Its value is 100.

What about the “Plant response rating, Ryegrass, Italian” value [8, 22] of the same molecule?
Its value is 100.

What about the “Plant response rating, Wheat, Spring” value [9, 15] of the same molecule?
The value was 10.

What about the “Plant response rating, Wheat, Spring” value [9, 16] of the same molecule?
The value was 10.

And the “Plant response rating, Wheat, Spring” value [9, 17]?
The value was 30.

What about the “Plant response rating, Wheat, Spring” value [9, 18] of the same molecule?
The value was 30.

What about the “Plant response rating, Wheat, Spring” value [9, 19] of the same molecule?
Its value is 0.

What about the “Plant response rating, Wheat, Spring” value [9, 20] of the same molecule?
The value was 0.

And the “Plant response rating, Wheat, Spring” value [9, 21]?
Its value is 25.

What about the “Plant response rating, Wheat, Spring” value [9, 22] of the same molecule?
Its value is 25.

And the “Plant response rating, Bromegrass, Downy” value [10, 15]?
The value was 0.

What about the “Plant response rating, Bromegrass, Downy” value [10, 16] of the same molecule?
The value was 0.

What about the “Plant response rating, Bromegrass, Downy” value [10, 17] of the same molecule?
Its value is 0.

And the “Plant response rating, Bromegrass, Downy” value [10, 18]?
Its value is 0.

And the “Plant response rating, Bromegrass, Downy” value [10, 19]?
Its value is 0.

What about the “Plant response rating, Bromegrass, Downy” value [10, 20] of the same molecule?
The value was 0.

What about the “Plant response rating, Bromegrass, Downy” value [10, 21] of the same molecule?
The value was 0.

What about the “Plant response rating, Bromegrass, Downy” value [10, 22] of the same molecule?
The value was 20.

And the “Plant response rating, Mustard, Wild” value [11, 15]?
Its value is 0.

And the “Plant response rating, Mustard, Wild” value [11, 16]?
The value was 0.

What about the “Plant response rating, Mustard, Wild” value [11, 19] of the same molecule?
Its value is 0.

And the “Plant response rating, Mustard, Wild” value [11, 20]?
The value was 0.

What about the “Plant response rating, Mustard, Wild” value [11, 21] of the same molecule?
Its value is 0.

What about the “Plant response rating, Mustard, Wild” value [11, 22] of the same molecule?
Its value is 0.

And the “Plant response rating, Foxtail, Green” value [12, 15]?
Its value is 90.

And the “Plant response rating, Foxtail, Green” value [12, 16]?
Its value is 95.

And the “Plant response rating, Foxtail, Green” value [12, 17]?
The value was 95.

And the “Plant response rating, Foxtail, Green” value [12, 18]?
Its value is 98.

What about the “Plant response rating, Foxtail, Green” value [12, 19] of the same molecule?
The value was 0.

And the “Plant response rating, Foxtail, Green” value [12, 20]?
Its value is 0.

And the “Plant response rating, Foxtail, Green” value [12, 21]?
The value was 75.

And the “Plant response rating, Foxtail, Green” value [12, 22]?
Its value is 100.

What about the “Plant response rating, Barley, Winter” value [13, 15] of the same molecule?
The value was 0.

And the “Plant response rating, Barley, Winter” value [13, 16]?
Its value is 0.

And the “Plant response rating, Barley, Winter” value [13, 17]?
The value was 10.

And the “Plant response rating, Barley, Winter” value [13, 18]?
Its value is 40.

What about the “Plant response rating, Barley, Winter” value [13, 19] of the same molecule?
The value was 0.

What about the “Plant response rating, Barley, Winter” value [13, 20] of the same molecule?
Its value is 0.

And the “Plant response rating, Barley, Winter” value [13, 21]?
Its value is 10.

And the “Plant response rating, Barley, Winter” value [13, 22]?
Its value is 10.

— patent US20100267561A1, “HERBICIDAL PYRIDAZINONE DERIVATIVES” (priority 2007, published 2010)
